Source: patent publication US11419335B2, “N-arylated analogues and uses thereof” (University of Florida Research Foundation, Incorporated, priority 2016, dated 2022)
Values after ≈ are worked out from the molar mass of the structure shown. Read-outs that look alike come from different tables or passages of the source. Marks after values point to notes of the source that are not given here.

Columns and labels:
[1] = system: methicillin-resistant Staphylococcus epidermidis (MRSE strain ATCC 35984); test: MIC broth microdilution, MRSE 35984; type: cell-based; details: for MIC S. epidermidis MRSE 35984: Table 1A
Protocol: (§1) The minimum inhibitory concentration (MIC) for each tested compound was determined by the broth microdilution method as recommended by the Clinical and Laboratory Standards Institute (CLSI). In a 96-well plate, eleven two-fold serial dilutions of each compound were made in a final volume of 100 μL Luria Broth. Each well was inoculated with ˜10^5 bacterial cells at the initial time of incubation, prepared from a fresh log phase culture (OD600 of 0.5 to 1.0 depending on bacterial strain). The MIC was defined as the lowest concentration of compound that prevented bacterial growth after incubating 16 to 18 hours at 37° C. (MIC values were supported by spectrophotometric readings at OD600). DMSO served as our vehicle and negative control in each microdilution MIC assay. DMSO was serially diluted with a top concentration of 1% v/v.
as §1, with “for each compound was” for “for each tested compound was”, “Standards Institute (CLSI).^6 In a” for “Standards Institute (CLSI). In a”, “concentration of test compound that” for “concentration of compound that”, “37° C. The concentration range tested for each compound during this study was 0.10 to 100 μM. DMSO served” for “37° C. (MIC values were supported by spectrophotometric readings at OD600). DMSO served”, “1% v/v. All MIC values were obtained from a minimum of three independent experiments.” for “1% v/v.”

[2] = system: Acinetobacter baumannii (ATCC 1794); test: MIC broth microdilution, A. baumannii 1794; type: cell-based; details: for MIC A. baumannii 1794: Table 1A
Protocol: as §1
as §1, with “for each compound was” for “for each tested compound was”, “Standards Institute (CLSI).^6 In a” for “Standards Institute (CLSI). In a”, “concentration of test compound that” for “concentration of compound that”, “37° C. The concentration range tested for each compound during this study was 0.10 to 100 μM. DMSO served” for “37° C. (MIC values were supported by spectrophotometric readings at OD600). DMSO served”, “1% v/v. All MIC values were obtained from a minimum of three independent experiments.” for “1% v/v.”

[3] = system: vancomycin-resistant Enterococcus faecium (VRE strain ATCC 700221); test: MIC broth microdilution, VRE 700221; type: cell-based; details: for MIC E. faecium VRE 700221: Table 1A
Protocol: as §1
as §1, with “for each compound was” for “for each tested compound was”, “Standards Institute (CLSI).^6 In a” for “Standards Institute (CLSI). In a”, “concentration of test compound that” for “concentration of compound that”, “37° C. The concentration range tested for each compound during this study was 0.10 to 100 μM. DMSO served” for “37° C. (MIC values were supported by spectrophotometric readings at OD600). DMSO served”, “1% v/v. All MIC values were obtained from a minimum of three independent experiments.” for “1% v/v.”

[4] = system: Pseudomonas aeruginosa (PAO1); test: MIC broth microdilution, PAO1; type: cell-based
Protocol: as §1
as §1, with “for each compound was” for “for each tested compound was”, “Standards Institute (CLSI).^6 In a” for “Standards Institute (CLSI). In a”, “concentration of test compound that” for “concentration of compound that”, “37° C. The concentration range tested for each compound during this study was 0.10 to 100 μM. DMSO served” for “37° C. (MIC values were supported by spectrophotometric readings at OD600). DMSO served”, “1% v/v. All MIC values were obtained from a minimum of three independent experiments.” for “1% v/v.”

[5] = system: methicillin-resistant Staphylococcus aureus MRSA-2 (clinical isolate); test: MIC broth microdilution, MRSA-2; type: cell-based; details: for MIC: read-out: MIC MRSA-2
Protocol: as §1
as §1, with “for each compound was” for “for each tested compound was”, “Standards Institute (CLSI).^6 In a” for “Standards Institute (CLSI). In a”, “concentration of test compound that” for “concentration of compound that”, “37° C. The concentration range tested for each compound during this study was 0.10 to 100 μM. DMSO served” for “37° C. (MIC values were supported by spectrophotometric readings at OD600). DMSO served”, “1% v/v. All MIC values were obtained from a minimum of three independent experiments.” for “1% v/v.”

[6] = system: methicillin-sensitive Staphylococcus aureus ATCC 29213; test: MIC broth microdilution, S. aureus 29213; type: cell-based
Protocol: as §1, with “The MIC was defined as the lowest concentration of compound that prevented bacterial growth after incubating 16 to 18 hours at 37° C.” left out
(§2) Each well was inoculated with ˜10^5 bacterial cells at the initial time of incubation, prepared from a fresh log phase culture (OD600 of 0.5 to 1.0 depending on bacterial strain). […] The concentration range tested for each compound during this study was 0.10 to 100 μM. DMSO served as our vehicle and negative control in each microdilution MIC assay. DMSO was serially diluted with a top concentration of 1% v/v. All MIC values were obtained from a minimum of three independent experiments.

MRSA BAA-1707 = test: MIC broth microdilution, MRSA BAA-1707; type: cell-based, Staphylococcus aureus; details: for MIC MRSA 1707: Table 4
Protocol: as §1, with “The MIC was defined as the lowest concentration of compound that prevented bacterial growth after incubating 16 to 18 hours at 37° C.” left out
as §2

[7] = system: human red blood cells (hRBC); test: Hemolysis of red blood cells; type: cell-based
Protocol: The washing was repeated three times with the buffer. In a 96-well plate, test compounds were added to the buffer from DMSO stocks. […] The plate was then incubated for 1 hour at 37° C. After incubation, the plate was centrifuged for 5 minutes at 3,500 rpm. Then 80 μL of the supernatant was transferred to another 96-well plate and the optical density (OD) was read at 405 nm. DMSO served as our negative control (0% hemolysis) while Triton X served as our positive control (100% hemolysis). […] All reported data correspond to three independent experiments. Ten-point dose-response curves were generated in 96-well plates to determine 50% hemolysis (HC50 values) of red blood cells.
The washing was repeated three times with the buffer. In 96-well plate, the test compounds were added to the buffer. Then 50 μL of 2% of hRBCs in the buffer were added to the test plate to make the final concentrations ranging from 0.2 to 200 μM of each test compound. The plate was then incubated for 1 hour at 37° C. After incubation, the plate was centrifuged for 5 minutes at 3500 rpm and then 80 μL of the supernatant was transferred to another 96-well plate and the Optical Density (OD) was read at 405 nm. DMSO served as our negative control (0% haemolysis) and Triton X served as our positive control (100% haemolysis). The HC50 (concentration of test compound required to lyse red blood cells by 50%) was calculated by plotting the dose-response curve (not shown) with Graphpad Prism 6.0. All data were obtained from three independent haemolysis experiments.

Compound	MIC S. epidermidis MRSE 35984 [1]	MIC MRSE 35984 ([1]; Table 4)	MIC A. bau. 1794 ([2]; Table 4)	MIC E. faecium VRE 700221 [3]	MIC VRE 700221 ([3]; Table 4)	MIC PAO1 ([4]; Table 1A)	MIC PAO1 ([4]; Table 4)	MIC MRSA-2 ([5]; Table 1A)	MIC MRSA-2 ([5]; Table 4)	MIC A. baumannii 1794 ([2]; in µM)	other results
C=CC[n+]1ccn(CCCCCCCCCCCCCCCC)c1C.[Br-] [Compound 10]	0.78 µM	0.78 µM	9.38a micromolar	2.35^a	2.35a micromolar	> 100 µM	>100 µM	2.35^a	2.35a micromolar	–	MIC A. baumannii 1794 [2]: 9.38^a
CCCCCCCCCCCCCCCCn1cc[n+](Cc2ccc(C(C)C)cc2)c1C.[Br-] [Compound 12]	2.35^a	2.35a micromolar	>100 µM	3.13 µM	3.13 µM	> 100 µM	>100 µM	6.25 µM	6.25 µM	>100	–
CCCCCCCCCCCCCCCCn1c(C)[n+](Cc2cccc(F)c2)c2ccccc21.[Br-] [Compound 27]	9.38^a	9.38a micromolar	>100 µM	3.13 µM	3.13 µM	> 100 µM	>100 µM	6.25 µM	6.25 µM	>100	–
CCCCCCCCCCCCCCCCn1ccnc1C [Compound 23, 1-hexadecyl-2-methyl-1H-imidazole]	3.13 µM (≈ 0.959 µg/mL)	–	–	2.35^a	–	> 100 µM	–	6.25 µM (≈ 1.92 µg/mL)	–	>100	–
CCCCCCCCCCCCCCCCn1cc[n+](-c2ccc(OC(F)(F)F)cc2)c1C.[Br-] [Compound 7]	–	–	18.8a micromolar	–	–	–	>100 µM	–	3.13 µM	–	MIC S. aureus 29213 ([6]; Table 1B): 2.35^a μM; MIC S. aureus 29213 ([6]; Table 3): 2.35^a μM; MIC MRSA BAA-1707 (MRSA BAA-1707; Table 1B): 4.69^a μM; MIC MRSA BAA-1707 (MRSA BAA-1707; Table 3): 4.69^a μM; MIC MRSA 1707 (MRSA BAA-1707): 4.69a micromolar; MIC ([5]; Table 1B): 3.13 µM; MIC ([5]; Table 3): 3.13 µM
CCCCCCCCCCCCCCCCn1cc[n+](Cc2ccc(Br)cc2)c1C.[Br-] [Compound 14]	6.25 µM	6.25 µM	>100 µM	4.69^a	4.69a micromolar	> 100 µM	>100 µM	6.25 µM	6.25 µM	>100*	–
CCCCCCCCCCCCCCCCn1c(C)[n+](Cc2cccc(OC)c2)c2ccccc21.[Br-] [Compound 26]	6.25 µM	6.25 µM	>100 µM	1.56 µM	1.56 µM	> 100 µM	>100 µM	3.13 µM	3.13 µM	>100	–
CCCCCCCCCCCCCCCCn1cc[n+](Cc2cc(Br)cc(Br)c2)c1C.[Br-] [Compound 20]	12.5 µM	12.5 µM	>100 µM	6.25 µM	6.25 µM	> 100 µM	>100 µM	37.5 µM	37.5 µM	>100	–
CCCCCCCCCCCCCCCCn1cc[n+](-c2ccc(C(F)(F)F)cc2)c1C.[Br-] [Compound 2]	–	–	–	–	–	–	–	–	–	–	RBC HC50 [7]: 13.4 µM; hemolytic activity [7]: potent hemolytic activities
CCCCCCCCCCCCCCCCn1cc[n+](-c2ccc(Oc3ccccc3)cc2)c1C.[Br-] [Compound 5]	–	–	37.5a micromolar	–	–	–	>100 µM	–	4.69a micromolar	–	MIC S. aureus 29213 ([6]; Table 1B): 4.69^a μM; MIC S. aureus 29213 ([6]; Table 3): 4.69^a μM; MIC MRSA BAA-1707 (MRSA BAA-1707; Table 1B): 4.69^a μM; MIC MRSA BAA-1707 (MRSA BAA-1707; Table 3): 4.69^a μM; MIC MRSA 1707 (MRSA BAA-1707): 4.69a micromolar; MIC MRSA-2 ([5]; Table 1B): 4.69^a μM; MIC MRSA-2 ([5]; Table 3): 4.69^a μM
Cc1nccn1Cc1ccccc1 [Compound 22]	> 100 µM	–	–	> 100 µM	–	> 100 µM	–	> 100 µM	–	>100	MIC ([1]; Staphylococcus epidermidis, Table 4, read-out: MIC MRSE 35984): > 100 µM; MIC ([2]; Acinetobacter baumannii, ATCC1794, Table 4, read-out: MIC A. bau. 1794): > 100 µM; MIC ([3]; Table 4, read-out: MIC VRE 700221): > 100 µM; MIC ([4]; Pseudomonas aeruginosa, PAO1, Table 4): > 100 µM; MIC ([5]; Staphylococcus aureus, MRSA, Table 4): > 100 µM
CCCCCCCCCCCCCCCCn1cc[n+](Cc2cc(C(F)(F)F)cc(C(F)(F)F)c2)c1C.[Br-] [Compound 19]	–	12.5 µM	>100 µM	9.38^a	9.38a micromolar	> 100 µM	>100 µM	12.5 µM	12.5 µM	>100	–
CCCCCCCCCCCCCCCCn1cc[n+](Cc2ccc(C(C)(C)C)cc2)c1C.[Br-] [Compound 13]	9.38^a	9.38a micromolar	>100 µM	4.69^a	4.69a micromolar	> 100 µM	>100 µM	12.5 µM	12.5 µM	>100	–
CCCCCCCCCCCCCCCCn1cc[n+](Cc2ccccc2C[n+]2ccn(CCCCCCCCCCCCCCCC)c2C)c1C [AB-3-35]	> 100 µM	–	–	> 100 µM	–	> 100 µM	–	> 100 µM	–	>100	HC50 [7]: 34.5 µM
